Values quoted from earlier work in patent US20040176366A1, “Method of preventing or treating atherosclerosis or restenosis” (priority 2002, published 2004).

Tested on: CMV
Conditions: rats, prophylaxis

## Nc1nc(O)c2ncn(COC(CO)CO)c2n1 [Ganciclovir]
  prevention of atherosclerosis resulting from CMV infection: prevent atherosclerosis resulting from CMV infection of rats
